Tests used:
Format in all cases: in vivo, human
healthy adults = assay: Drug interaction study with co-administration of vadadustat in healthy adults; settings: healthy adults; extent of increase
Excerpt: Sulfasalazine. Other Breast Cancer Resistance Protein Substrates. and Probenecid. Exposures to sulfasalazine (moderately) and mesalamine (mildly) were increased with co-administration of vadadustat based on a study in healthy adults. In subjects taking vadadustat, sulfasalazine and other clinically relevant substrates of the breast cancer resistance protein (BCRP) transporter (e.g., sulfasalazine, methotrexate, mitoxantrone, imatinib, irinotecan, lapatinib, topotecan, tenofovir, glecaprevir, pibrentasvir, or sofosbuvir), caution should be taken during the study. Probenecid, an inhibitor of UDP-glucuronosyltransferase (UGT) and the organic anion transporter (OAT)1/3 transporters, increased vadadustat area under the curve and is prohibited during the study.

[1] = Phase 2 study, Main Study: pharmacokinetics (vadadustat and vadadustat-O-glucuronide concentration); settings: Week 1, Week 1+1 day, and Week 11
Method: PK/PD Endpoints. An exposure-response analysis of vadadustat and PD measures were conducted as deemed appropriate. The PK parameters included (but were not limited to) the following: area under concentration-time curve from dosing to last measurable concentration (AUClast), area under concentration-time curve from dosing to infinity (AUCinf), Cmax, apparent total body clearance (CL/F), apparent volume of distribution (Vd/F), and terminal half-life (t1/2). The PD parameters included (but were not limited to) the following: EPO, reticulocytes, iron, ferritin, TIBC, and hepcidin.
PK population: included all randomized subjects who received study drug (vadadustat or epoetin alfa) and had enough drug concentrations to estimate AUC and Cmax. Analysis of this population was based on the dose amount taken at the date of PK sampling for the vadadustat group.

[2] = Phase 1b study: pharmacokinetics of vadadustat and its metabolites in plasma of hemodialysis subjects with anemia associated with CKD
Method: The primary objective of the study was to assess the pharmacokinetics (PK) of vadadustat 600, 750, and 900 mg daily, and IV ESA (darbepoetin alfa or epoetin alfa) in hemodialysis subjects with anemia associated with CKD. Additional objectives included to evaluate the pharmacodynamics (PD) of vadadustat 600, 750, and 900 mg daily, and IV ESA (darbepoetin alfa or epoetin alfa) in hemodialysis subjects with anemia associated with CKD and to assess the safety and tolerability of vadadustat 600, 750, and 900 mg daily and IV ESA (darbepoetin alfa or epoetin alfa) in hemodialysis subjects with anemia associated with CKD.
Study Design. This was a Phase 1b, randomized, open-label study to evaluate the PK, PD, safety, and tolerability of vadadustat 600, 750, or 900 mg daily, or ESA (darbepoetin alfa or epoetin alfa) in hemodialysis subjects with anemia associated with CKD. The study included a 28-day Screening and Randomization period, a 10-day Treatment Period, and a 30-day Safety Follow up Period after the last dose of study drug (vadadustat or ESA). For subjects randomized to vadadustat, study duration also included an ESA washout period of a minimum of 5 days for epoetin alfa or 9 days for darbepoetin alfa or 9-day ESA Washout period prior to dosing on Day 1.
A total of 46 subjects were enrolled in the study. Written informed consent were obtained before any screening procedures were performed. Subjects were screened within 28 days prior to randomization. Eligible subjects were randomized in a 2:2:2:1 ratio to 1 of 4 treatment groups (600, 750, or 900 mg vadadustat QD, or ESA. Randomized subjects began their 10-day Treatment Period within 36 days of initiating screening.
Eligible subjects were randomly assigned in a 2:2:2:1 ratio to 1 of 4 treatment groups: Group 1—vadadustat 600 mg once daily (QD); Group 2—vadadustat 750 mg QD; Group 3—vadadustat 900 QD; and Group 4—IV ESA. Randomization was stratified by the mean weekly ESA dose calculated over a period of 8 weeks prior to the randomization visit. For darbepoetin, the groups were divided into low dose darbepoetin alfa group (<0.5 μg/kg/week) and high dose darbepoetin alfa group (>0.5 to <1.5 μg/kg/week). For epoetin, the groups were divided into low dose epoetin alfa group (≤90 U/kg/week) and high dose epoetin alfa group (>90 to <300 U/kg/week).
Subjects began dosing on Day 1 and took vadadustat at approximately the same time each day for a total of 10 days. On Day 1 and Day 8, subjects took vadadustat after all predose procedures are completed and within 30 minutes prior to the start of dialysis so that the 1-hour post dose blood sample for PK and PD was collected during dialysis. Vadadustat could be taken with or without food. Subjects were instructed to make every effort to take the drug consistently, either with or without food. Subjects were instructed to swallow the tablets whole with water.
PK and EPO Sample. For each vadadustat treatment group, blood samples for vadadustat PK (and its metabolites) and EPO were collected at the following time points: Day 1: predose, and at 1, 2, 3, 4, 5, 8, and 11 hours post dose; Day 2: 24 hours (−2 hours) post Day 1 dose; Day 6: blood sample for EPO analysis only was collected predose on Day 6; Day 8: predose, and at 1, 2, 3, 4, 5, 8, 11 hours post dose, Day 10 or EOT: predose. For the ESA treatment group, blood samples for analysis of EPO were collected at the following time points: Day 1: predose, and at 0.25, 1, 2, 3, 4, 5, 8, and 11 hours post dose; Day 2: 24 hours (−2 hours) post Day 1 dose.
Primary Endpoints. […]

| Exposures increased with co-administration of vadadustat (healthy adults) | metabolite exposure versus dose ([2]; Day 8) | accumulation versus dose ([2]; most pronounced in the 900 mg vadadustat treatment group) | Structure (SMILES) | mean concentration versus time profiles, dose dependency [1] |
| --- | --- | --- | --- | --- |
| moderately |  |  | O=C(O)c1cc(/N=N/c2ccc(S(=O)(=O)Nc3ccccn3)cc2)ccc1O [sulfasalazine] |  |
|  | increased in a dose-dependent manner | dose-dependent increase in accumulation | O=C(O)CNC(=O)c1ncc(-c2cccc(Cl)c2)cc1O[C@@H]1O[C@H](C(=O)O)[C@@H](O)[C@H](O)[C@H]1O [vadadustat-O-glucuronide] | concentrations increased with dose levels |
| mildly |  |  | Nc1ccc(O)c(C(=O)O)c1 [mesalamine] |  |
